Where “and” joins values, the source holds several entries; their conditions need not be identical. Equal entries are not always repeated.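 Protocol summary: plate cells (96-well), add compound at 5 concentrations, incubate 48 h, interpolate endpoints linearly. Abbreviation: GI50, concentration required for 50% inhibition of growth. At the TGI there is no net growth.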 Where only a bound is given, the exact number is not on record here.

Test systems include SK-MEL-5 melanoma; U251 CNS; LOX IMVI melanoma; OVCAR-3 ovarian; SK-OV-3 ovarian; SK-MEL-2 melanoma; HL-60(TB) leukemia; ACHN renal; K-562 leukemia; HCT-116 colon.
What all share (test): inhibition of tumour cell growth, NCI panel, 48 h

On to `COc1cccc(-c2nn(-c3ccccc3)cc2-c2ccnc(NCCNS(=O)(=O)c3ccc(C(F)(F)F)cc3)c2)c1`, for which the GI50 in the experiment on SK-MEL-5 melanoma is 1.72 µM; in the experiment on U251 CNS, 3.54 µM; with LOX IMVI melanoma it was 1.84 µM; with OVCAR-3 ovarian it was 2.59 µM; in the experiment on SK-OV-3 ovarian, 3 µM; in the experiment on SK-MEL-2 melanoma it was 2.42 µM. In addition, the GI50 in the experiment on HL-60(TB) leukemia was 1.97 µM; in the experiment on ACHN renal, 3.4 µM; in the experiment with K-562 leukemia it was 2.87 µM; in the experiment with HCT-116 colon, 3.27 µM. The TGI with SK-MEL-5 melanoma was determined as 3.11 µM; in the experiment with U251 CNS it was 13.9 µM; with LOX IMVI melanoma, 3.78 µM; with OVCAR-3 ovarian, 7.3 µM; in the experiment on SK-OV-3 ovarian it was 11.1 µM; with SK-MEL-2 melanoma, 6.47 µM. Besides, the TGI with HL-60(TB) leukemia is 5.63 µM; in the experiment with ACHN renal, > 100 µM; with K-562 leukemia, 19.4 µM; with HCT-116 colon, 15.8 µM.
As for `Cc1cc(Cl)ccc1Nc1sc(C(=O)c2cc3cc(Cl)ccc3o2)c(N)c1C#N`, the TGI was > 100 µM with SK-MEL-5 melanoma; 16.2 µM in the experiment with U251 CNS; > 100 µM with LOX IMVI melanoma; > 55.3 µM in the experiment with OVCAR-3 ovarian; 57 µM with SK-OV-3 ovarian; > 100 µM in the experiment on SK-MEL-2 melanoma. For the same compound, the TGI in the experiment on HL-60(TB) leukemia is > 100 µM; in the experiment on ACHN renal it was 98.1 µM; in the experiment on K-562 leukemia, > 100 µM; in the experiment on HCT-116 colon it was > 100 µM.
In the case of `COc1cc2[nH]c(C(=O)c3cc(OC)c(OC)c(OC)c3)c(N)c2cc1C#CCO`, the GI50 in the experiment with SK-MEL-5 melanoma was 0.087 µM; with U251 CNS, 0.431 µM; in the experiment with LOX IMVI melanoma, 0.502 µM; in the experiment on OVCAR-3 ovarian, 0.0491 µM; with SK-OV-3 ovarian, 0.482 µM; in the experiment on SK-MEL-2 melanoma, 0.485 µM. In addition, the GI50 in the experiment on HL-60(TB) leukemia was 0.313 µM; with ACHN renal, 0.515 µM; in the experiment on K-562 leukemia, 0.347 µM; in the experiment on HCT-116 colon, 0.298 µM. Further, the TGI in the experiment with SK-MEL-5 melanoma is 1.3 µM; with U251 CNS, > 100 µM; with LOX IMVI melanoma, 21.5 µM; in the experiment with OVCAR-3 ovarian it was 0.243 µM; in the experiment with SK-OV-3 ovarian it was > 100 µM; in the experiment with SK-MEL-2 melanoma, > 100 µM. For the same compound, the TGI is 0.956 µM with HL-60(TB) leukemia, > 100 µM in the experiment with ACHN renal, > 100 µM in the experiment with K-562 leukemia and > 100 µM in the experiment with HCT-116 colon.
Turning to `Cc1cc(C)c(C(=O)O)c(N)c1O`, the TGI in the experiment on SK-MEL-5 melanoma, in the experiment with U251 CNS, in the experiment on LOX IMVI melanoma, in the experiment with OVCAR-3 ovarian, in the experiment on SK-OV-3 ovarian and with SK-MEL-2 melanoma was > 100 µM throughout. Moreover, the TGI with HL-60(TB) leukemia, in the experiment with ACHN renal, in the experiment on K-562 leukemia and in the experiment with HCT-116 colon was > 100 µM throughout.
In the case of `O=C(OC(C(=O)O)C(OC(=O)c1ccccc1)C(=O)O)c1ccccc1` (centres undefined) (tested in a mixture with another compound), the TGI was 43.2 µM in the experiment on SK-MEL-5 melanoma; > 100 µM in the experiment with U251 CNS; > 100 µM and 44.6 µM in the experiment on LOX IMVI melanoma; > 69.1 µM with OVCAR-3 ovarian; > 100 µM with SK-OV-3 ovarian; > 100 µM and 28.7 µM in the experiment on SK-MEL-2 melanoma. The TGI in the experiment with HL-60(TB) leukemia is > 37.8 µM; in the experiment on ACHN renal, > 100 µM; in the experiment with K-562 leukemia, > 100 µM; with HCT-116 colon, 55 µM.
Consider `COc1ccc(C(=S)c2cc(OC)c(OC)c(OC)c2)cc1OC(=O)CCl`, for which the GI50 is 0.0141 µM in the experiment with SK-MEL-5 melanoma; 0.0341 µM in the experiment on U251 CNS; 0.0102 µM in the experiment on LOX IMVI melanoma; 0.0227 µM with OVCAR-3 ovarian; 0.0684 µM in the experiment on SK-OV-3 ovarian; 33.1 µM with SK-MEL-2 melanoma. Also, the GI50 in the experiment on HL-60(TB) leukemia was < 0.0129 µM; in the experiment with ACHN renal, 0.0214 µM; in the experiment with K-562 leukemia, < 0.01 µM; in the experiment with HCT-116 colon, < 0.0174 µM. For the same compound, the TGI was 0.0616 µM in the experiment with SK-MEL-5 melanoma; > 100 µM with U251 CNS; > 100 µM with LOX IMVI melanoma; 0.0813 µM in the experiment on OVCAR-3 ovarian; > 100 µM with SK-OV-3 ovarian; > 100 µM in the experiment on SK-MEL-2 melanoma. The TGI was < 0.0218 µM in the experiment with HL-60(TB) leukemia, 61.5 µM in the experiment with ACHN renal, > 100 µM in the experiment with K-562 leukemia and > 100 µM in the experiment with HCT-116 colon.
Turning to `O=c1c(O)c(-c2ccc(O)c(O)c2)oc2cc(O)ccc12`, the TGI in the experiment with SK-MEL-5 melanoma worked out at 27.4 µM; with U251 CNS it was 35.6 µM; with LOX IMVI melanoma, 32.4 µM; with OVCAR-3 ovarian it was 62 µM; in the experiment with SK-OV-3 ovarian, 59.9 µM; in the experiment on SK-MEL-2 melanoma, 23.2 µM. For the same compound, the TGI in the experiment with HL-60(TB) leukemia is > 84.1 µM; with ACHN renal, > 91 µM; in the experiment on K-562 leukemia it was > 100 µM; in the experiment with HCT-116 colon it was 26.2 µM.
For `O=C1C2CC3C(CC2C(=O)[N]1[Sn]([c]1ccccc1)([c]1ccccc1)[c]1ccccc1)C1(Cl)C(Cl)=C(Cl)C3(Cl)C1(Cl)Cl` (centres undefined), the GI50 in the experiment with SK-MEL-5 melanoma is 0.145 µM; in the experiment with U251 CNS it was 0.119 µM; with LOX IMVI melanoma, 0.0588 µM; in the experiment on OVCAR-3 ovarian it was 0.0964 µM; with SK-OV-3 ovarian, 0.137 µM; in the experiment on SK-MEL-2 melanoma, 0.167 µM. Further, the GI50 in the experiment on HL-60(TB) leukemia was 0.176 µM; with ACHN renal, 0.112 µM; with K-562 leukemia, 0.0492 µM; with HCT-116 colon, 0.0473 µM. Moreover, the TGI is 0.301 µM with SK-MEL-5 melanoma; 0.252 µM in the experiment on U251 CNS; 0.184 µM in the experiment on LOX IMVI melanoma; 0.222 µM in the experiment with OVCAR-3 ovarian; 0.353 µM in the experiment with SK-OV-3 ovarian; 0.351 µM with SK-MEL-2 melanoma. Moreover, the TGI came out at 0.497 µM in the experiment with HL-60(TB) leukemia, 0.243 µM in the experiment with ACHN renal, 0.754 µM with K-562 leukemia and 0.183 µM in the experiment with HCT-116 colon.
`CC(C)(Cl)CCC1=C(Cl)C(=O)c2ccccc2C1=O`: the GI50 with SK-MEL-5 melanoma was 1.78 µM; in the experiment with U251 CNS it was 2.43 µM; in the experiment on LOX IMVI melanoma, 1.73 µM; with OVCAR-3 ovarian it was 1.72 µM; in the experiment on SK-OV-3 ovarian it was 5.48 µM; with SK-MEL-2 melanoma, 2.43 µM. Also, the GI50 with HL-60(TB) leukemia is 1.33 µM; with ACHN renal, 1.65 µM; in the experiment on K-562 leukemia, 1.25 µM; with HCT-116 colon, 1.59 µM. In addition, the TGI worked out at 3.57 µM in the experiment with SK-MEL-5 melanoma; 8.67 µM in the experiment on U251 CNS; 3.26 µM with LOX IMVI melanoma; 3.17 µM in the experiment with OVCAR-3 ovarian; 17.6 µM in the experiment on SK-OV-3 ovarian; 4.97 µM with SK-MEL-2 melanoma. The TGI with HL-60(TB) leukemia turned out to be 3.84 µM; in the experiment on ACHN renal, 3.03 µM; in the experiment on K-562 leukemia it was 10.6 µM; in the experiment with HCT-116 colon it was 3.19 µM.
On to `Nc1nc(N)c2nc(CNc3ccc(C(=O)CC(CCC(=O)O)C(=O)O)cc3)cnc2n1` (centres undefined), for which the GI50 was 0.45 µM in the experiment with SK-MEL-5 melanoma; 0.215 µM in the experiment with U251 CNS; < 0.0229 µM in the experiment with LOX IMVI melanoma; > 100 µM in the experiment on OVCAR-3 ovarian; > 100 µM in the experiment on SK-MEL-2 melanoma; < 0.018 µM with HL-60(TB) leukemia. For the same compound, the GI50 in the experiment with ACHN renal is 0.162 µM; with K-562 leukemia, 0.0406 µM; in the experiment with HCT-116 colon it was < 0.0185 µM. The TGI in the experiment on SK-MEL-5 melanoma, with U251 CNS, with LOX IMVI melanoma, in the experiment with OVCAR-3 ovarian, in the experiment with SK-OV-3 ovarian and in the experiment on SK-MEL-2 melanoma was > 100 µM throughout. The TGI in the experiment on HL-60(TB) leukemia, with ACHN renal, with K-562 leukemia and in the experiment on HCT-116 colon was > 100 µM in each case.
In the case of `CN1CCN(C(=O)c2ccc(NC(=O)Nc3ccc(N(C)c4ccnc(Nc5ccc(CS(C)(=O)=O)cc5)n4)cc3)cc2)CC1`, the GI50 in the experiment with SK-MEL-5 melanoma is 12.4 µM; in the experiment on U251 CNS, 6.26 µM; with LOX IMVI melanoma, 10 µM; with OVCAR-3 ovarian, 7.44 µM; in the experiment with SK-OV-3 ovarian, > 25 µM; with SK-MEL-2 melanoma, > 12.7 µM. For the same compound, the GI50 in the experiment with HL-60(TB) leukemia is > 19.4 µM; in the experiment on ACHN renal it was > 25 µM; with K-562 leukemia it was 12.6 µM; in the experiment with HCT-116 colon, 10.1 µM. For the same compound, the TGI in the experiment on SK-MEL-5 melanoma is > 25 µM; in the experiment with U251 CNS, > 25 µM; with LOX IMVI melanoma, > 25 µM; with OVCAR-3 ovarian, > 19.4 µM; with SK-OV-3 ovarian, > 25 µM; in the experiment on SK-MEL-2 melanoma, > 25 µM. Also, the TGI with HL-60(TB) leukemia, in the experiment on ACHN renal, in the experiment on K-562 leukemia and in the experiment with HCT-116 colon was > 25 µM throughout.
`Nn1c(CCCl)nc2c(Br)cc(Br)cc2c1=O`: the TGI in the experiment on SK-MEL-5 melanoma was 37.8 µM; in the experiment on U251 CNS, > 58 µM; in the experiment with LOX IMVI melanoma, 78.6 µM; with OVCAR-3 ovarian it was 39.8 µM; with SK-OV-3 ovarian, > 94.1 µM; in the experiment on SK-MEL-2 melanoma it was > 90.9 µM. Moreover, the TGI was 6.5 µM in the experiment on HL-60(TB) leukemia, > 74.7 µM with ACHN renal, > 30.6 µM in the experiment on K-562 leukemia and 53 µM in the experiment on HCT-116 colon.
